# Results as given in EP2096113A1, “9-substituted camptothecin derivatives as antitumor compounds” (SIGMA-TAU Industrie Farmaceutiche Riunite S.p.A., priority 2008, dated 2009).
# Like-named read-outs stand apart in the source and are kept apart here.
# Experiments:
# [1] = test system: NCI-H460 non-microcytoma lung cancer cells; experiment: Cytotoxic activity on NCI-H460 cells (sulforodamine B test); format: cell-based; conditions: product concentration that inhibits cell survival by 50%; 2 hours incubation with products, then another 72 hours in drug-free medium; optical density at 540 nm; read-out: IC50 (µM) H-460
# Protocol: NCI-H460 non-microcytoma lung cancer cells were kept in RPMI 1640 culture medium containing 10% FCS and 1% glutamine. The cytotoxicity test to analyse the activity of the molecules was performed as follows. The cells were seeded in a volume of 250 µl in 96-well plates and incubated for 2 hours at 37°C with scalar concentrations of the products in a humidified atmosphere containing 5% CO2. At the end of the incubation, the molecules were removed by overturning the plates and adding sterile buffered saline solution (PBS) three times. The RPMI 1640 culture medium containing 10% FCS (200 µl) was added to the wells and the plates were incubated for another 72 hours. At the end of the incubation, the plates were overturned again and dried on paper, before adding 200 µl of PBS and 50 µl of 80% TCA. The plates were incubated again in ice for at least 1 hour. The TCA was removed by overturning the plates and the plates were first dried on paper and then washed three times by immersion in distilled water and overturning. The plates were dried first on paper and then in a thermostatically regulated incubator at 60°C for 10 min. 200 µl of 0.4% sulforodamine B in 1% acetic acid were added to all wells. The plates were incubated at room temperature for another 30 min. The sulforodamine B was removed by overturning, the plates were washed by immersion in 1% acetic acid three times and then dried first on blotting paper and then in the thermostat at 60°C for 10 min. Lastly, 200 µl of Tris base 10 mM were added to all wells and the plates were subjected to stirring for at least 20 min. The optical density was measured with a Multiskan spectrophotometer at 540 nm. Incubation with the products was capable of inhibiting proliferation in a concentration-dependent manner. Table 1 presents the IC50 values (product concentration that inhibits cell survival by 50%]. IC50 values for topotecan have also been reported for comparison purposes (Dallavalle S. et al., J. Med. Chem., 44, 3264-74, 2001). Table 1.
# [2] = test system: NCI-H460 non-microcytoma lung cancer cells; conditions: topotecan value reported for comparison, from Dallavalle S. et al., J. Med. Chem., 44, 3264-74, 2001; read-out: IC50 (µM) H-460; cited from earlier work
SMILES,IC50 [1] [µM],IC50 [2] [µM]
"CC[C@@]1(O)C(=O)OCc2c1cc1n(c2=O)Cc2cc3c(C=NOC(C)(C)C)c(OC)ccc3nc2-1 [10-OCH3-CPT-9-CH=NOC(CH3)3, 10-methoxy-9-tert-butoxyiminomethylcamptothecin]",0.31,–
"CC[C@@]1(O)C(=O)OCc2c1cc1n(c2=O)Cc2cc3c(C#N)c(OC)ccc3nc2-1 [10-OCH3-CPT-9-CN, 10-Methoxy-9-cyanocamptothecin]",0.27,–
"CC[C@@]1(O)C(=O)OCc2c1cc1n(c2=O)Cc2cc3c(C=NOC(C)(C)C)c(O)ccc3nc2-1 [10-OH-CPT-9-CH=NOC(CH3)3, 10-hydroxy-9-tert-butoxyiminomethylcamptothecin]",0.35,–
"CC[C@@]1(O)C(=O)OCc2c1cc1n(c2=O)Cc2cc3c(C=NOC(C)(C)C)cccc3nc2-1 [CPT-9-CH=NOC(CH3)3, 9-tert-Butoxyiminomethylcamptothecin]",0.067,–
"CC[C@@]1(O)C(=O)OCc2c1cc1n(c2=O)Cc2cc3c(C=NOCCN)cccc3nc2-1 [CPT-9-CH=NOCH2CH2NH2, 9-(2-Aminoethoxy)iminomethylcamptothecin]",2.53,–
"CC[C@@]1(O)C(=O)OCc2c1cc1n(c2=O)Cc2cc3c(CN(C)C)c(O)ccc3nc2-1 [topotecan, 10-hydroxy-9-dimethylaminomethylcamptothecin]",–,1.38
